# Reference: patent US8202910B2 (Sequella, Inc., priority 2006, dated 2012)
# Several values for one entry are separate records, joined by “and”; a condition that tells them apart may be missing. Identical values can stand only once. Like-named read-outs stand apart in the source and are kept apart here.
# Experiments:
# dopamine receptor D1 = target: T1, dopamine receptor D1 (Homo sapiens, UniProt P21728); test: CEREP receptor binding, D1; settings: tested at 10 μM; read-out: inhibition of control specific binding
# T1 construct: CEREP (contract testing)
# T1 sequence (P21728 whole entry): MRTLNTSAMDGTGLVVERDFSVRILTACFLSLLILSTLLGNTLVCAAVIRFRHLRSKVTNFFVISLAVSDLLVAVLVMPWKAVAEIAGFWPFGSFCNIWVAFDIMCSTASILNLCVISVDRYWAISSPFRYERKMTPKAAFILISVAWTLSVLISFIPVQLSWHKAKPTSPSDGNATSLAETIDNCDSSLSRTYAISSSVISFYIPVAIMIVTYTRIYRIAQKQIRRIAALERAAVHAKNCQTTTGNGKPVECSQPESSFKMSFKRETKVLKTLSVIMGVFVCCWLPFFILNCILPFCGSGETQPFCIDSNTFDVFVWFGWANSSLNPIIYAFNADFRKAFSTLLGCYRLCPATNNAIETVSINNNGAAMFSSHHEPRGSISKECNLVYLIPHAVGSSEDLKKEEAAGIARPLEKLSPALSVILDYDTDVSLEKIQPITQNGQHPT
# Description: (§1) In vitro testing for safety pharmacology and early ADMET (Absorption, Distribution, Metabolism, Excretion, Toxicity) studies of compound 109 were contracted out to CEREP (15318 NE 95th Street, Redmond, Wash., 98052, USA www.cerep.com) under a service agreement and included evaluation of inhibitory binding to a panel of 27 standard receptors and three transporters (See FIG. 60 (Table 31) and FIG. 61 (Table 32)) which included: adenosine receptors (A1 and A2A), adrenergic receptors (alpha 1, alpha 2, beta 1), angiotensin II receptor (AT1), benzodiazapene receptor (BZD), bradykinin receptor (B2), cholecystokinin receptor (CCK1), dopamine receptors (D1, D2S), endothelin receptor (ETA), GABA receptor (GABA), glutamate receptor (NMDA), histamine receptor (H1 central), melanocortin receptor (MC4), muscarinic receptor (M, non-selective), neurokinin receptor (NK1), neuropeptide Y receptor (Y), nicotinic receptor (neuronal, alpha-BGTX-insensitive), opiate receptor (non-selective opiate), orphanin receptor (ORL1), phencyclidine receptor (PCP), serotonin receptor (5-HT), sigma receptor (sigma non-selective), steroid receptor (glucocorticoid receptor, GR), and NE, DA, and 5-HT transporters.
# (§2) The specific ligand binding to the receptors is defined as the difference between the total binding and the nonspecific binding determined in the presence of an excess of unlabelled ligand.
# [1] = system: RIF^R M. tuberculosis strain 2482; type: cell-based
# M. avium complex (MAC) = test: Spectrum of activity MIC, MOTT, agar proportion method; type: cell-based; settings: Mycobacterium avium; three isolates
# human CYP2D6 = human CYP2D6 (Homo sapiens, UniProt P10635); test: Metabolism by CYP2D6; type: in vitro ADME
# Sequence of human CYP2D6 (P10635 whole entry): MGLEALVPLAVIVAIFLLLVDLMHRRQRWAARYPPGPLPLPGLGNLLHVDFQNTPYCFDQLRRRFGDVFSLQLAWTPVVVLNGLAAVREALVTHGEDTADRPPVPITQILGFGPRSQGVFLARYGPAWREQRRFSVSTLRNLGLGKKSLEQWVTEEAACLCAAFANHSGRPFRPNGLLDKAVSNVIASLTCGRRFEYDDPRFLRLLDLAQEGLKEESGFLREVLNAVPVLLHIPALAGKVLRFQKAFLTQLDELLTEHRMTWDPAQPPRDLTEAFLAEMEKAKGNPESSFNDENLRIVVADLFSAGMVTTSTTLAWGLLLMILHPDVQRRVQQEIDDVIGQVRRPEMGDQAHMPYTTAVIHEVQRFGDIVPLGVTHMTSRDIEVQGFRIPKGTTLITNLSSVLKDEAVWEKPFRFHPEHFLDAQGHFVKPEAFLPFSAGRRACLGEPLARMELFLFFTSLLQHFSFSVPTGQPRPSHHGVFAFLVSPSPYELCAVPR
# Description: (§3) Two of the groups contained oxidized metabolites. […] Based on the finding that SQ109 was metabolized rapidly by CYP, it is possible that its antimycobacterial activity may come from one of its metabolites. It is conceivable that SQ109 is a prodrug and requires activation by mycobacterial CYP. We speculate that when SQ109 is used in combination with rifampicin, the latter induces certain CYP activity within the Mycobacteria. Elevated CYP activity activates the SQ109 prodrug more efficiently, resulting in an apparent synergistic activity of the two drugs.
# [2] = target: T2, melanocortin MC4 receptor (Homo sapiens, UniProt P32245); test: CEREP receptor binding, MC4; settings: tested at 10 μM; read-out: inhibition of control specific binding
# T2 construct: CEREP (contract testing)
# T2 sequence (P32245 whole entry): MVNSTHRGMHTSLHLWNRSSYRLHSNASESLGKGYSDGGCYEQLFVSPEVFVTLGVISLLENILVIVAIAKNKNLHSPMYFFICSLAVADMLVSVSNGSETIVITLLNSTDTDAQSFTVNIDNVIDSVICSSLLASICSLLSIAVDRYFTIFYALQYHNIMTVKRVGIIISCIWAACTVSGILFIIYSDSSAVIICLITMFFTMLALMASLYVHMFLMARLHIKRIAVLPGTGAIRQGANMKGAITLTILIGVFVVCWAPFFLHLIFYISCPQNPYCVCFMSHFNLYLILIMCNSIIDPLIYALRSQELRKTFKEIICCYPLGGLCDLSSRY
# Description: as §1, §2
# [3] = system: sigma receptor (sigma non-selective); test: CEREP receptor binding, sigma; settings: tested at 10 μM
# Description: as §1, §2
# dopamine receptor D2S = target: T3, dopamine receptor D2S (Homo sapiens, UniProt P14416); test: CEREP receptor binding, D2S; settings: tested at 10 μM; read-out: inhibition of control specific binding
# T3 construct: CEREP (contract testing)
# T3 sequence (P14416 1-414 isoform P14416-2): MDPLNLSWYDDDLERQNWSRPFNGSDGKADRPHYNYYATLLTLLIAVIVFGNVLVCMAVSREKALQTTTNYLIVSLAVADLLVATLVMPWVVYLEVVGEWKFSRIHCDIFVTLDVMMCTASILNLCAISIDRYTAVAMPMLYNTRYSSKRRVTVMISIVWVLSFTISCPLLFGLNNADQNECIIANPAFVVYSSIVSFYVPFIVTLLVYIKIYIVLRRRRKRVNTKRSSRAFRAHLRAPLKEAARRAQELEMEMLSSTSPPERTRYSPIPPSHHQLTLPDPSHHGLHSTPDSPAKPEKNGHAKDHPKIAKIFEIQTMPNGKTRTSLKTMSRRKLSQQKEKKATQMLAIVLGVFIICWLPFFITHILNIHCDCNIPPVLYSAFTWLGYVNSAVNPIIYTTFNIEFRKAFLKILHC
# Description: as §1, §2
# human CYP2C19 = human CYP2C19 (Homo sapiens, UniProt P33261); test: Metabolism by CYP2C19; type: in vitro ADME
# Sequence of human CYP2C19 (P33261 whole entry): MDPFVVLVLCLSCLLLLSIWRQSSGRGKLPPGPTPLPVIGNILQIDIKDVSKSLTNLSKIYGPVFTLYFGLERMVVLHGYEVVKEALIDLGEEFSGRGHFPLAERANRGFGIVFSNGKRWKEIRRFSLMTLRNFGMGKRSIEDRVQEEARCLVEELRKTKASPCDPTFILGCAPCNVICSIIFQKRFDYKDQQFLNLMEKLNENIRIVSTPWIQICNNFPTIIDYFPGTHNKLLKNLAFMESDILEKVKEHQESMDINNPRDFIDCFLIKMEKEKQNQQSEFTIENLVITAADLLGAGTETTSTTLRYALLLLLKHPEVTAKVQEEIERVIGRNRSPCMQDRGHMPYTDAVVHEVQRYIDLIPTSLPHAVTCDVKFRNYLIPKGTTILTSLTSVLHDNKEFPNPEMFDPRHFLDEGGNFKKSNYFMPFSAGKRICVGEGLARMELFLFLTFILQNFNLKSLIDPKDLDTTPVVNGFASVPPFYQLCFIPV
# Description: as §3
# [4] = type: in vitro ADME; settings: 6 h
# Protocol: Initially, analytical methods for determination of the compounds had been developed that allowed to carry out all the PK experiments, sec FIG. 29. Here is a brief description of the experiment: (1) plasma spiked with tested compounds and 10 uL of Terfenadine or plasma samples (200 uL) added; (2) ACN (2 mL) added to precipitate protein and spin at 2,500 rpm; (3) evaporate supernatant to dryness; (4) add 200 uL of the diluting solvent: methanol (with 0.1% of trifluoroacetic acid): ammonium acetate (80/20); (5) vortex, spin, and use supernatant; (6) run LC/MS/MS on Sciex API 3000.
# Biostability studies of the compounds in plasma were carried out using concentrations 1 and 15 mg/ml. The compounds were incubated for 1, 2, 3 & 6 hr at 37° C. (Table 18).
# [5] = system: H37Rv strain of Mycobacterium tuberculosis; test: microbe, parasite or virus in culture; type: cell-based
# M. fortuitum = test: Spectrum of activity MIC, rapid-grower, broth microdilution (NCCLS M24-A); type: cell-based; settings: Mycolicibacterium fortuitum; all strains tested
# [6] = system: Propionibacterium acnes, Bacteroides fragilis, and Clostridium difficile; test: Spectrum of activity MIC (NCCLS), anaerobes; type: cell-based
# Protocol: Compound 109 was tested against a representative panel of commonly encountered clinical microorganisms comprising opportunistic pathogens, target pathogens and normal human flora. The spectrum of activity of compound 109 was evaluated by performing antimicrobial susceptibility testing against a collection of aerobic and anaerobic bacteria, fungi, and mycobacteria. MICs for all organisms were established using the appropriate NCCLS (National Committee for Clinical Laboratory Standards) recommended standard methods and quality control strains.
# M. tuberculosis H37Rv [7] = test: Standard chronic mouse model of tuberculosis, CFU in lung; type: in vivo, C57BL/6 female mice
# [8] = system: muscarinic receptor (M, non-selective); test: CEREP receptor binding, muscarinic M; settings: tested at 10 μM
# Description: as §1, §2
# M. tuberculosis [MTB] = test: Spectrum of activity MIC, BACTEC 460 TB system; type: cell-based; settings: Mycobacterium tuberculosis
# M. smegmatis = test: Spectrum (unpublished data); type: cell-based
# M. tuberculosis H37Rv [9] = test: MIC by BACTEC 460; type: cell-based, Mycobacterium tuberculosis; settings: Mycobacterium tuberculosis, H37RV; read-out: MIC (BACTEC)
structure (smiles),measurement,setting,value
"CC(C)=CCC/C(C)=C/CNCCNC1C2CC3CC(C2)CC1C3 (stereo not shown) [Compound 109, N-Geranyl-N′-(2-adamanthyl)ethane-1,2-diamine]",inhibition at 10 µM,dopamine receptor D1,51%
same,x/y quotient,[1]; 0.25 MIC SQ109 (0.08 mg/L) + 10 mg/L rifampicin,0.66
same,x/y quotient,[1]; 0.5 MIC SQ109 + rifampicin 25 mg/L,0.497
same,x/y quotient,[1]; 0.5 MIC SQ109 + rifampicin 50 mg/L,0.39
same,x/y quotient,[1]; 0.5 MIC SQ109 + rifampicin 100 mg/L,0.33
same,growth inhibition,[1]; 0.5 MIC SQ109 added to 100 mg/L rifampicin,more than 99%
same,MIC,M. avium complex (MAC),8 to 32 µg/mL
same,metabolism by CYP,human CYP2D6,metabolized
same,inhibition at 10 µM,[2],90%
same,inhibition of control specific binding,[3],106%
same,inhibition at 10 µM,dopamine receptor D2S,73%
same,metabolism by CYP,human CYP2C19,metabolized
same,Biostability in plasma (% ↓),[4]; dog,40% ↓
same,Biostability in plasma (% ↓),[4]; human,30% ↓
same,Biostability in plasma (% ↓),[4]; mouse,stable
same,Biostability in plasma (% ↓),[4]; rat,stable
same,MIC,[5],1.953 µM and 1.95 µM
same,MIC,"[5]; Mycobacterium tuberculosis, H37RV, Table 10, from uM and MW, read-out: MIC",0.879 µg/mL
same,MIC,"[5]; Mycobacterium tuberculosis, H37RV, Table 10, read-out: MIC",1.95 µM
same,MIC,"[5]; Mycobacterium tuberculosis, H37RV, Table 15, read-out: MIC",1.56 µM
same,MIC,"[5]; Mycobacterium tuberculosis, H37RV, previously determined, read-out: MIC by micro-broth dilution",0.2 µM and 0.11 µg/mL
same,MIC,"[5]; Mycobacterium tuberculosis, H37RV, read-out: MIC",1.95 µM
same,MIC,M. fortuitum,1 µg/mL
same,MIC,[6],16 to 64 µg/mL
same,CFU in lung,"M. tuberculosis H37Rv [7]; INH+RIF+SQ109 at 25, 20 and 10 mg/kg, wk 4",3.2 log10CFU
same,CFU in lung,"M. tuberculosis H37Rv [7]; SQ109 by itself, 4 week therapy, control untreated 8.1",6.6 log10CFU
same,CFU in lung,"M. tuberculosis H37Rv [7]; combination SQ109+RIF at 10 and 20 mg/kg, 4 week therapy",4.8 log10
same,inhibition of control specific binding,[8],96%
same,MIC,M. tuberculosis [MTB],0.25 to 0.5 µg/mL
same,activity,M. smegmatis,much less active
same,MIC,M. tuberculosis H37Rv [9],0.32 µg/mL
